Tests used:
[1] = tested on: human adipose-derived stem cells (hADSCs); test: neurogenesis / neuronal differentiation of hADSCs judged by neuronal morphology under phase contrast microscopy; assay type: cell-based
Procedure: hADSCs were purchased from Invitrogen, also known as Life Technologies, of Carlsbad, Calif., U.S.A., and were cultured as near confluent monolayers in 100 mm culture plates within a maintenance media consisting of Complete MesenPro RS medium with growth supplement and L-glutamine obtained from Invitrogen®. The process of culturing, passage, and seeding the hADSCs is described below.
The subculture of hADSCs was performed when cell culture reached confluence. To passage hADSCs, the following procedure is used: i) aspirate the Complete MesenPRO RS medium from the cells; ii) rinse the surface area of the cell layer with Dulbecco's phosphate buffered saline (DBPS) buffer by adding the DPBS to the side of the vessel opposite the attached cell layer and rocking the vessel back and forth several times; iii) remove the DPBS by aspiration and discard; iv) detach the cells by adding a sufficient volume of pre-warmed trypsin-EDTA solution without phenol red to cover the cell layer; v) incubate at 37° C. for approximately 7 minutes; vi) observe the cells under a microscope to determine if additional incubation is needed; vii) add 3 mL of the maintenance media to the plate, mix the cell suspension, add the suspension to a 15 mL centrifuge tube and centrifuge at 210 g for 5 minutes; viii) determine the total number of cells and percent viability using a hemacytometer; ix) add Complete MesenPRO RS medium to each vessel so that the final culture volume is 0.2 mL-0.5 mL per cm^2; x) seed the cells by adding the appropriate volume of cells to each vessel and incubate at 37° C., 5% CO2 and 90% humidity; and xi) three or four days after seeding, completely remove the medium and replace with an equal volume of Complete MesenPRO RS medium.
Before seeding the passaged hADSCs on fresh culture plates, the surfaces of the culture ware are washed with sterile DPBS solution three times, followed by multiple rinses with sterile water. The first layer of coating is poly-L-ornithine. The coating is prepared by adding about 15 to about 20 μg/mL of poly-L-ornithine and incubating at 37° C. for one hour. The plate is washed three times with DPBS, 15 minutes per wash. The second layer of coating is bovine plasma fibronectin. The fibronectin is diluted in DPBS from stock to 1:1000 and 500 μL is added to each well. The plate is left at room temperature for one hour. One final wash with 500 μL per well of DPBS is performed and the plate is used immediately.
The cells were then subjected to removal and reseeded at a density of 2×10^4 cells/ml (1×10^4 cells/well) onto 24-well culture plates that contained a poly-L-ornithine and bovine plasma fibronectin coating.
Three days after seeding and priming; the culture medium was changed into neuronal differentiation medium. The culture plates were removed from the incubator and all procedures were conducted in a laminar flow hood. The culture medium was completely removed from each well. The hADSCs were then washed with sterile DPBS solution in an amount of about 1 ml per well, to remove excess culture medium. The DPBS solution was removed and replaced with neuronal differentiation medium. The formulation of the neuronal differentiation medium is such that neurogenesis would be attributed to the nutrient and not to the medium. The neuronal differentiation medium used was Neurobasal™ Medium, available from Invitrogen®, which comprises the following ingredients listed below in Table 1.
PE was added to individual wells at various concentrations in the serum-free medium. Pre-warmed serum-free medium contains Neural Basal medium with L-glutamine, 20 ng/mL of bFGF, 20 ng/mL of EGF and N2 supplement.
[…] PE in varying concentrations was tested individually and compared to the positive control, DHA, and the negative control (no treatment) under phase contrast microscopy at 24 hours, 48 hours and 96 hours. The experiments were repeated in triplicate. […]

[2] = tested on: human neuronal stem cells (hNSCs); test: neurogenesis of GFP-expressing hNSCs judged by morphological changes under inverted fluorescent microscopy; assay type: cell-based
Procedure: Briefly, hNSCs were purchased from Millipore, Bellerica, Mass., U.S.A., with genetic modification to constitutively express green fluorescent protein (“GFP”). The hNSCs were cultured on laminin coated plates as recommended by the manufacturer. Both laminin and DEME/F12 were obtained from Millipore. Laminin was diluted with DMEM/F12 to 20 μg/mL. 10 ml of diluted laminin solution was added to 10 cm tissue culture dish. Then the culture dish was incubated in a 37° C., 5% CO2 incubator overnight. Just before use, the laminin solution was aspirated and rinsed once with sterile DPBS solution. hNSCs were cultured in the ReNcell NSC maintenance medium (Millipore) supplied with 20 ng/mL bFGF and 20 ng/mL EGF in a 37° C., 5% CO2 incubator. Medium was exchanged with fresh medium containing bFGF and EGF every other day thereafter.
After hNSCs reach 80% confluence, hNSCs were ready for the differentiation experiment. Before seeding, a 96-well plate was freshly coated with 20 μg/mL laminin solution followed by a brief DPBS rinse as described above. Culture medium was removed carefully and hNSCs were dissociated within 3 ml Accutase (Millipore) in a 37° C., 5% CO2 incubator for 3 minutes. Then 5 ml of ReNcell NSC maintenance medium (Millipore) supplied with 20 ng/mL bFGF and 20 ng/mL EGF were added. The cell suspension was then transferred a sterile 15 ml conical tube and the cells were pelleted by the centrifugation at 300×g for 5 minutes. Supernatant was removed. 2 ml medium was then applied to the tube and hNSCs was resuspended thoroughly. The hNSCs were seeded on a 96-well plate at a density of 1×10^4 cell/ml (1000 cells/well, 100 μl/well).
After attaching to the culture surface, the culture medium was switched to serum-free differentiation medium in the presence of CDP-choline, or DHA, or no treatment. The serum-free differentiation medium was prepared freshly before the switching including 40 ml DMEM/F12 (Millipore), 400 μL-Glutamine at a concentration of 200 mM (Life Technologies, Carlsbad, Calif.), 400 μl B27 solution (Life Technologies, Carlsbad, Calif.), and 40 μl Heperin (Sigma-Aldrich, St. Louis, […].) solution at a concentration of 10 mg/mL.
The entire 96-well plate was placed under the Leica DMI4000B fluorescent microscopy, and images were taken with GFP filter under a microscope with UV light source.

[3] = CDP-choline of 404 (so in the source), after 72 hours

Molecule: C[N+](C)(C)CCOP(=O)(O)OP(=O)([O-])OC[C@H]1O[C@@H](n2ccc(N)nc2=O)[C@H](O)[C@@H]1O [CDP-choline, cytidine diphosphate-choline]
- effect to enhance neurogenesis (neurite outgrowth, morphological changes) ([1]; 5 μM, FIG. 4C): demonstrated an effect to enhance neurogenesis
- length of neurite outgrowth [2, 3]: comparable to DHA at 20 μM
- neurogenesis compared to no treatment [2, 3]: dramatically promoted neurogenesis

Molecule: CCCCCCCCCCCCC/C=C/[C@@H](O)[C@@H](CO)NC(=O)CCCCCCC [N-octanoyl-D-threo-sphingosine]
- neurogenesis ([2]; 10 μM, FIG. 5E): dramatically promoted neurogenesis

Molecule: CCCCCCCCCCCCC/C=C/[C@@H](O)[C@H](CO)NC(=O)C(O)CCCCCCCCCC (stereo partly drawn) [N—(R,S)-alpha-Hydroxydodecanoyl-D-erythrosphingosine]
- early neurogenesis ([1]; 40 μM, 24 hours after treating, FIG. 5B): Early neurogenesis was also, observed
- effects to promote neurogenesis compared with DHA ([1]; tested at 20 and 40 μM vs DHA 10 μM, 24 hours): moderate effects to promote neurogenesis
- neuronal changes in terms of morphology ([1]; tested at 20 and 40 μM, 24 hours): obvious neuronal changes in terms of morphology

Molecule: O=c1ccn([C@@H]2O[C@H](CO)[C@@H](O)[C@H]2O)c(=O)[nH]1 [uridine]
- early neurogenesis ([1]; 20 μM, three hours after switching to neural differentiation medium, FIG. 6B): Early neurogenesis was observed
- duration of neuronal morphological changes ([1]; 0.5 mM): continued up to the 48-hour time course of the culture
- effect to enhance early neurogenesis ([1]; 0.5 mM): demonstrated the strongest effect to enhance early neurogenesis
- length of neurite outgrowth ([2]; 20 μM): good effects of neurogenesis
- neurogenesis ([2]; 20 μM, FIG. 6C): dramatically promoted neurogenesis

Molecule: lactosylceramide
- neurogenesis action ([1]; 10 μM, FIG. 5D): exhibit neurogenesis action

Molecule: phosphatidylethanolamine [PE]
- effect to enhance neurogenesis (neuronal morphology) ([1]; 20 μM, among 10, 20 and 40 μM tested, FIGS. 2C, 2D): demonstrated the strongest effect to enhance neurogenesis

Molecule: sphingomyelin
- neural differentiation ([1]; 40 μM): enhanced neural differentiation of hADSCs
- extensions compared to negative control ([1]; even at low concentrations (10-40 μM tested)): longer than negative control and much more numerous

Reference: US20140199265A1, “NUTRITIONAL COMPOSITIONS CONTAINING A NEUROLOGIC COMPONENT AND USES THEREOF” (MEAD JOHNSON NUTRITION COMPANY, priority 2013, published 2014)
